Data reported in US20070269420A1, “Compounds, Compositions and Methods for Treatment and Prophylaxis of Hepatitis C Viral Infections and Associated Diseases” (priority 2003, published 2007).
pEC50, pKd: −log10 of the molar value. Where two headings read alike, the source gives them in different places.

Key:
HCV NS4B = target: T1, HCV NS4B (Hepatitis C virus genotype 1b, UniProt Q9WMX2); assay: NS4B binding assay (quenching of intrinsic protein fluorescence)
T1 construct: NS4B was cloned, expressed and purified to establish an assay; made in house
Excerpt: NS4B was cloned, expressed and purified to establish an assay, which takes advantage of the intrinsic fluorescent properties of proteins and identifies compounds, which inhibit by a NS4B specific mechanism. This protein is necessary for viral replication. It is thought to act as an anchor securing the replication complex to cellular membranes, where replication is known to occur. Several other functions necessary for viral replication have also ascribed to NS4B.

[1] = tested on: HCV replicon (BB7 sequence) in Huh-7-Clone A cells; assay: HCV replicon NS5A ELISA, inhibition of viral RNA replication; type: cell-based, hepatitis C virus; conditions: Hepatitis C virus
Method: Antiviral activity of representative compounds of the invention was evaluated in a human liver-derived cell line (Huh-7-Clone A) containing the HCV replicon (BB7 sequence) (See Lohmann et al. Science. 1999, 285:110-3; Blight K J et al., Science. 2000, 290:1972-4; Pietschmann, T. et al., J. Virol. 2001, 73:1252-1264; and Lohmann, V. et al., J. Virol. 2001, 75:1437-1449). The HCV replicon is a subgenomic viral RNA that expresses the HCV proteins required for its own replication. These proteins include non-structural proteins NS3, NS4A, NS4B, NS5A and NS5B. The replicon also contains a foreign gene encoding a drug-selectable marker (neomycin phosphotransferase) to allow for G418 (neomycin) selection of cells that contain the replicon.
An ELISA (enzyme-linked immunosorbant assay) was used to determine the effect of compounds within the scope of the invention on the amount of HCV NS5A protein produced after a 72-hour incubation of the replicon-containing cells in the presence of varying concentrations of compound. Huh7-Clone A cells were seeded in 96-well plates at a subconfluent density (9000 cells/well) in medium containing 2% FBS and incubated for 4 hours to allow attachment to occur. HCV-086 (solubilized with 100% dimethylsulfoxide [DMSO]) was added to wells using an 8-point, 3-fold serial dilution series, with a final DMSO concentration of 1% in a total volume of 200 μL. Plates were incubated for 72 hours at 37° C. and 5% CO2. Under these conditions, the cells are approximately 25% confluent at the time of seeding and 80-90% confluent on day 3. COSTAR® 96-well cell culture plates were used but other known cell culture plates may be used. After incubation, media is removed from wells and the cells are fixed to the assay plate using 0.05% glutaraldehyde (Fisher # 02957-4). The glutaraldehyde is then washed off using phosphate-buffered saline (PBS) following a 1 hour incubation and cells are blocked for non-specific antibody binding using for example SUPERBLOCK® reagent (blocking buffer) in PBS. The blocking agent is rinsed from the cells with PBS after 1 hour at 37° C., and HCV NS5A monoclonal antibody (Virostat # 1873) is added to each well containing compound. Primary antibody is incubated for 1 hour at 37° C. and rinsed 3 times with PBS containing 0.02% TWEEN-20™ before addition of Horseradish Peroxidase (HRP) conjugated secondary antibody. HRP is incubated for 1 hour at 37° C. and rinsed several times, first with PBS/TWEEN-20™ followed by PBS alone. To quantify peroxidase activity, 3,3′,5,5′-tetramethylbenzidine (TMB) substrate is added to the plate and after 30 minutes, the plates are read in an ELISA plate reader at an OD of 650 nm.
Compound dose response was measured in an 8-point dose curve diluted serially to determine the inhibitory concentration at 50% (EC50 value). […] Ranges of 50% effective concentrations (EC50s) for the representative compounds within the scope of this invention are listed in Tables 1-8. Preferred compounds have 50% effective concentrations at about 30 μM or less, more preferred compounds have 50% effective concentrations at about 5 μM or less, and most preferred compounds have 50% effective concentrations at about 0.5 μM or less.

[2] = Crystal Violet cellular toxicity in wild type replicon cells; type: cell-based; conditions: human
Method: (§1) Huh-7 cells (harboring no replicon) and wild type replicon cells were seeded onto a 96 well plate. All cells were subjected to increasing amounts of a representative compound of the invention, as described in the replicon ELISA protocol. In order to assess the cellular toxicity of a compound of Formula I in both Huh-7 cells (harboring no replicon) and wild type replicon, cells were stained with Crystal Violet (a nonspecific protein stain) after 72 hours. The […] values for cells lacking replicon were generally >100.0 μM in parental Huh-7 cells for each compound. […] In this case the cells' natural defenses are strengthened and apoptosis, a natural defense to viral infection, occurs. The Huh-7 cell line is the parental cell line harboring no HCV subgenomic replicon. In this cell line, the toxicity is reduced due to the fact that there is no NS4B for the compound to bind. If the cellular toxicity in cells comprising HCV replicons and in the parental Huh-7 cell line (no replicon) are the same, then they are effective in inhibiting HCV replication rather than the modulation of apoptosis.
(§2) During drug screening efforts to identify compounds having binding affinity for HCV NS4B, the triazinoindole class of compounds of Formula VII was identified. […] However a cellular toxicity (CC50) of 20 μM was also found. […]

[3] = Crystal Violet cellular toxicity in parental cells harboring no replicon; type: cell-based; conditions: human, parental Huh-7 cells (harboring no replicon), 72-hour period, parental Huh-7 cells lacking replicon
Method: as §1, §2

[4] = tested on: genotype 1b (BB7 isolate) replicon-containing cells; assay: Selection of replicon variants under test compound; type: cell-based, hepatitis C virus; conditions: cell line passaged in the presence of 5 μM test compound for 7 passages
Method: To select for replicon variants, genotype 1b (BB7 isolate) replicon-containing cells were cultured and in the presence of 5 μM of the test compound for 7 passages. As a control, genotype 1b (BB7 isolate) replicon-containing cells were passaged in parallel, without the test compound. […] Total cellular RNA was extracted from both cell lines using Trizol Reagent (Invitrogen #15596-026) according to the manufacturer's protocol. NS5B cDNA was generated in a two-step RT-PCR reaction. PCR products were ligated into pPCR-Script Amp SK (+) (Stratagene #211188), transformed into E. coli, and sequenced.
The changes are as follows: K52R, G120V and A210S.

[5] = Table 1, phenyl benzamide compounds, read-out: Kd
[6] = Table 1, NS5A protein, 72-hour incubation, read-out: ELISA EC50
[7] = Table 2, pyrazolopyrimidine compounds, read-out: Kd
[8] = Table 2, NS5A protein, 72-hour incubation, read-out: ELISA EC50
[9] = Table 5, aminothiophene compounds, read-out: Kd
[10] = Table 5, NS5A protein, 72-hour incubation, read-out: ELISA EC50
[11] = Table 6, phenylthiazolylamine compounds, read-out: Kd
[12] = Table 6, NS5A protein, 72-hour incubation, read-out: ELISA EC50
[13] = Table 7, triazinoindole compounds, read-out: Kd
[14] = Table 7, NS5A protein, 72-hour incubation, read-out: ELISA EC50

## CC(=O)c1ccc(NC(=O)c2cc3c(C)nn(-c4ccccc4)c3s2)cc1 [Example 1]
HCV NS4B; Table 4, thienopyrazole compound, read-out: Kd
  pKd: 6.00
[1]; Table 4, NS5A protein, 72-hour incubation, read-out: ELISA EC50
  pEC50: 5.50

## CCC(C)c1ccc(NC(=O)c2ccccc2F)cc1 (stereo not shown) [Example 1]
HCV NS4B; [5]
  pKd: 5.60
[1]; [6]
  pEC50: 5.57

## CCCCc1c(C)nn(-c2nnc3c4ccccc4n(CC)c3n2)c1C [Example 1]
[1]; measured using the HCV subgenomic replicon system, read-out: EC50
  pEC50: 5.92
[2]; HCV subgenomic replicon cells, found alongside EC50 in the HCV subgenomic replicon system
  CC50: 20000 nM
[2]; Crystal Violet, 72-hour period, cells containing wild type replicons
  CC50 at 72 h: 20000 nM
[3]
  CC50 at 72 h: > 100000 nM
[4]
  reduced susceptibility to the compound: over 10 fold

## CCCc1cc(O)n2nc(-c3ccc(C)cc3)c(C)c2n1 [Example 1]
HCV NS4B; [7]
  pKd: 5.23
[1]; [8]
  pEC50: 5.66

## COC(=O)c1c(NC(=O)Cc2cccs2)sc(C(=O)Nc2ccc(Cl)cc2)c1C [Example 1]
HCV NS4B; [9]
  pKd: 6.52
[1]; [10]
  pEC50: 6.15

## COc1ccc(Cl)cc1Nc1nc(-c2cccnc2)cs1 [Example 1]
HCV NS4B; [11]
  pKd: 5.77
[1]; [12]
  pEC50: 5.82

## Cc1nccn1-c1nc(-c2ccc(Cl)cc2)cc(C(F)(F)F)n1 [Example 1]
HCV NS4B; Table 3, trifluoromethylpyrimidine compound, read-out: Kd
  pKd: 5.69
[1]; Table 3, NS5A protein, 72-hour incubation, read-out: ELISA EC50
  pEC50: 5.66

## CC(=O)Nc1ccc(Nc2nc(-c3cccs3)cs2)cc1 [Example 2]
HCV NS4B; [11]
  pKd: 5.21
[1]; [12]
  pEC50: 4.95

## CCn1c2ccccc2c2nnc(-n3nc(C)c(-c4ccccc4)c3C)nc21 [Example 2]
HCV NS4B; [13]
  pKd: 5.66
[1]; [14]
  pEC50: 6.00

## COC(=O)c1c(NC(=O)c2ccc3c(c2)OCO3)sc(C(=O)NC2CCCCC2)c1C [Example 2]
HCV NS4B; [9]
  pKd: 5.40
[1]; [10]
  pEC50: 5.12

## COc1ccc(C(=O)Nc2ccc(N3CCOCC3)c(Cl)c2)cc1Cl [Example 2]
HCV NS4B; [5]
  pKd: 5.63
[1]; [6]
  pEC50: 5.60

## O=C(NC1CCCC1)c1cc2nc(-c3ccccc3)cc(C(F)(F)F)n2n1 [Example 2]
HCV NS4B; [7]
  pKd: 5.38
[1]; [8]
  pEC50: 5.77

## CC(C)Oc1cccc(C(=O)Nc2ccc(N3CCOCC3)c(Cl)c2)c1 [Example 3]
HCV NS4B
  pKd: 5.35
[1]; [6]
  pEC50: 5.41

## CCCCc1c(C)nn(-c2nnc3c4ccccc4n(C)c3n2)c1C [Example 3]
HCV NS4B
  pKd: 5.37
[1]; [14]
  pEC50: 5.24

## COC(=O)c1c(NC(=O)C(C)C)sc(C(=O)Nc2ccc(Cl)cc2)c1C [Example 3]
HCV NS4B
  pKd: 6.07
[1]; [10]
  pEC50: 5.94

## COc1ccc(OC)c(Nc2nc(-c3cccs3)cs2)c1 [Example 3]
HCV NS4B; [11]
  pKd: 6.24
[1]; 72 h, read-out: ELISA EC50
  pEC50: 5.60

## O=C(NCc1cccs1)c1cc2nc(-c3ccco3)cc(C(F)(F)Cl)n2n1 [Example 3]
HCV NS4B
  pKd: 6.18
[1]; [8]
  pEC50: 6.20

## CC(C)c1ccc(NC(=O)c2ccccc2)cc1 [Example 4]
HCV NS4B; [5]
  pKd: 5.16
[1]; [6]
  pEC50: 5.55

## CCC(=O)Nc1sc(C(=O)Nc2ccc(C)cc2)c(C)c1C(=O)OC [Example 4]
HCV NS4B; [9]
  pKd: 5.78
[1]; [10]
  pEC50: 5.49

## Cc1nn(-c2nnc3c4ccccc4n(C)c3n2)c(C)c1C [Example 4]
HCV NS4B; [13]
  pKd: 4.85
[1]; [14]
  pEC50: < 4.60

## CCC(=O)Nc1sc(C(=O)Nc2ccc(Cl)cc2)c(C)c1C(=O)OC [Example 5]
HCV NS4B; [9]
  pKd: 5.60
[1]; [10]
  pEC50: 5.34

## CCn1c2ccccc2c2nnc(-n3nc(C)c(C)c3C)nc21 [Example 5]
HCV NS4B; [13]
  pKd: 4.81
[1]; [14]
  pEC50: < 4.60

## CCc1c(C)nn(-c2nnc3c4ccccc4n(C)c3n2)c1C [Example 6]
HCV NS4B; [13]
  pKd: 5.12
[1]; [14]
  pEC50: < 4.60

## CCCCc1c(C)nn(-c2nnc3c4ccccc4n(CCO)c3n2)c1C [Example 7]
HCV NS4B; [13]
  pKd: 5.70
[1]; [14]
  pEC50: < 4.60

## CCCCc1c(C)nn(-c2nnc3c4ccccc4n(CCN(C(C)C)C(C)C)c3n2)c1C [Example 8]
HCV NS4B; [13]
  pKd: 4.99
[1]; [14]
  pEC50: 5.18

## CCCCc1c(C)nn(-c2nnc3c4ccccc4n(CCN(CC)CC)c3n2)c1C [Example 9]
HCV NS4B; [13]
  pKd: 5.74
[1]; [14]
  pEC50: 5.28

## CCCCc1c(C)nn(-c2nnc3c(n2)[nH]c2ccccc23)c1C [Example 10]
HCV NS4B; [13]
  pKd: 5.44
[1]; [14]
  pEC50: < 4.60

## CCCCc1c(C)nn(-c2nnc3c4ccccc4n(CCOC)c3n2)c1C [Example 11]
HCV NS4B; [13]
  pKd: 6.00
[1]; [14]
  pEC50: 5.15

## CCCCc1c(C)nn(-c2nnc3c4ccccc4n(CCSC)c3n2)c1C [Example 12]
HCV NS4B; [13]
  pKd: 5.74
[1]; [14]
  pEC50: 5.00
